We go through two molecules from US11484543B2, “Compositions and methods for diagnosing and treating diseases and disorders associated with mutant KCNJ5” (The Rockefeller University, priority 2017, dated 2022).

The target of assay [1] is T1, KCNJ5^WT (Homo sapiens, UniProt P48544).
T1 construct: expressed in transfected cells
T1 sequence (P48544 1-419): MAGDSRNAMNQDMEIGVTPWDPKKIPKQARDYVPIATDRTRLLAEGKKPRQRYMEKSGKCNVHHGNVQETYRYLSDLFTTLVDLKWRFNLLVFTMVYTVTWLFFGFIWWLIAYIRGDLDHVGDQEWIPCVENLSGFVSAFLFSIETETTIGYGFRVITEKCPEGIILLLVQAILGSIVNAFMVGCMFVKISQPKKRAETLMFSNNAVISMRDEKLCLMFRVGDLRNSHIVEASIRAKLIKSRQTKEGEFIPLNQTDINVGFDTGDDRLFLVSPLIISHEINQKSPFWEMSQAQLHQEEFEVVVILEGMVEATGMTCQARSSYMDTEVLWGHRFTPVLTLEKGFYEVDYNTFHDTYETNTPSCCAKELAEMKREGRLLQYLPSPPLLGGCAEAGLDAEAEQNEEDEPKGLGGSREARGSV
The assay is described as follows: Perforated whole-cell patch clamp, KCNJ5^WT homotetramers in HEK293T cells. It is filed as cell-based. The conditions noted are these: increasing concentrations, −80 mV (FIG. 12D). As for the experimental part:
Cation currents were measured with the perforated whole cell recording technique (140 mM NaCl/5 mM KCl bath solution, 140 mM KCl pipette solution for KCNJ5^G151R; 140 mM NaCl/5 mM KCl bath solution, 140 mM KCl, 1.8 mM MgCl2 pipette solution for KCNJ5^L168R; 140 mM KCl bath and pipette solution for KCNJ5^WT). […] Errors represent standard error of the mean, N=3 to 6. […] In contrast, WT currents are not inhibited.
HEK293T cells (American Type Culture Collection) were used for transient expression of GFP-tagged KCNJ5 or KCNJ3. The cells were grown in Dulbecco's modified Eagle medium (DMEM; Invitrogen) supplemented with 10% FBS (Invitrogen) in 5% CO2 and 95% air at 37° C. […]
Within 24 hr after transfection, the cells were treated with trypsin-containing medium (TrypLE Express) (Gibco) for 10 minutes to detach the cells. […] Fluorescence signal (an indication of positive transfection) was detected with an intensified video imaging system including a SIT 68 camera (Long Island Industries). […] After forming a high resistance seal (>2 GΩ), the membrane capacitance was monitored until the whole-cell patch configuration was formed. The cell membrane capacitance was measured and compensated. The K/cation currents were measured from −80 mV to 20 mV with 20 mV steps by an Axon 200A patch-clamp amplifier. […]
In general terms: Patch clamp records ionic current or voltage across a cell membrane.

The target of assay [2] is T1, KCNJ5^WT. The assay is described as follows: Membrane potential assay (FLIPR dye) in inducible KCNJ5^WT HEK293 cells. In kind it is cell-based. The note with it: tested as in FIG. 7 (FIGS. 9 and 10).

Take `CC[C@H]1OC(=O)[C@H](C)[C@@H](O[C@H]2C[C@@](C)(OC)[C@@H](O)[C@H](C)O2)[C@H](C)[C@@H](O[C@@H]2O[C@H](C)C[C@H](N(C)C)[C@H]2O)[C@](C)(O)C[C@@H](C)/C(=N\OCOCCOC)[C@H](C)[C@@H](O)[C@]1(C)O` [Roxithromycin, roxithromycin]: the “inhibition of WT currents” value against KCNJ5^WT [1] is listed as “not inhibited”.

As to “N-demethyl-N-isobutyl-8,9-anhydroerythromycin A 6,9-hemiacetal [PLUX37]”, the “inhibition of KCNJ5^WT by synthesized macrolide derivatives” value against KCNJ5^WT [2] was “no inhibition”.
